Data taken from patent publication US20240358625A1, “STABILIZATION OF MYCOSPORINE-LIKE AMINO ACIDS” (NAGASE & CO., LTD., priority 2021, published 2024).

How the values were obtained:
Format in all cases: physicochemical
[1] = Influence of pH on the stability of MG in solution and coloring of the MG solution
Experimental: Influence of pH on the stability of MG in a solution and the coloring of an MG solution were investigated. Adjustment of the solution to each pH was performed using 0.1 M phosphate buffer and phosphoric acid and NaOH as necessary. The MG concentration in the solution was 0.1%. MG solutions of each pH were prepared and left at 60° C. for 4 days, and then the amount of MG and the absorbance (400 nm) of the solutions were measured. The MG residual rate was determined by comparing with the amount at the start of the experiment.

[2] = Effect of 4-DG ratio on stabilizing MG and on coloring of the MG solution; conditions: MG 0.1%, 4-DG ratio 1.5 to 11.1 parts by weight
Experimental: The effect of 4-DG on stabilizing MG was investigated. Solutions at pH 7 (in 0.1M phosphate buffer) containing various ratios of 4-DG to MG (0.1%) were prepared, and the amount of MG after standing at 60° C. for 57 days was measured. Then, the MG residual rate was determined. Additionally, the absorbance (400 nm) of the solution was measured over time during the experiment period.

[3] = Influence of bases constituting nucleic acids on the stability of MGA (residual rate); conditions: 0.1% MGA, pH 7.5, 60° C. for 3 days; adenine 0.01%, guanine, cytosine, uracil, thymine 0.2%
Experimental: The influence of bases (adenine, guanine, cytosine, uracil, and thymine) constituting nucleic acids on the stability of MGA and MG was investigated. A 0.1% MGA solution (adjusted to pH 7.5 with 0.1M phosphate buffer) each containing adenine (0.01%), guanine (0.2%), cytosine (0.2%), uracil (0.2%), or thymine (0.2%) was prepared. A 0.1% MG solution (adjusted to pH 7.5 with 0.1M phosphate buffer) each containing adenine (0.01%), cytosine (0.2%), uracil (0.2%), or thymine (0.2%) was prepared. After these solutions were left at 60° C. for 3 days for MGA, 20 days and 49 days for MG, the amounts of MGA and MG were measured to determine the residual rate.

[4] = weakly acidic to weakly alkaline conditions, 60° C. for 4 days

MG residual rate ([1]; 0.1% MG, 0.1 M phosphate buffer, pH 5.4 to 8.8, 60° C. for 4 days) [%] | absorbance (400 nm) of the solution ([1]; 0.1% MG, pH 5.4 to 8.0, 60° C. for 4 days) | coloring of the MG solution [1, 4] | stability of MG [1, 4] | residual rate of MG ([2]; pH 7, 60° C. for 57 days) [%] | absorbance (400 nm) of the solution ([2]; pH 7, 60° C., 57th day) | stabilizing effect on MGA [3] | SMILES
≥ 88 | ≤ 0.018 | suppressed | stabilized | ≥ 74 | ≤ 0.17 |  | COC1=C(NCC(=O)O)C[C@@](O)(CO)CC1=O [MG, mycosporine-glycine]
 |  |  |  |  |  | confirmed | Nc1nc2nc[nH]c2c(=O)[nH]1 [guanine]
